Measured values taken from PubChem BioAssay (NCI).
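Tested at 5 concentrations; 48 h exposure; 96-well plates; endpoints linearly interpolated, else capped at highest concentration. At the GI50, growth is halved. TGI: concentration producing complete growth inhibition.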

Key:
Experiment in all cases: DTP human tumour cell line panel, 48 h
[1] = test system: HL-60(TB) leukemia
[2] = test system: HT29 colon
[3] = test system: MDA-MB-231 breast
[4] = test system: CAKI-1 renal
[5] = test system: A498 renal
[6] = test system: DU-145 prostate
[7] = test system: UO-31 renal
[8] = test system: NCI-H23 lung
[9] = test system: 786-0 renal
[10] = test system: SNB-19 CNS
[11] = test system: RPMI-8226 leukemia
[12] = test system: T-47D breast
[13] = test system: TK-10 renal
[14] = test system: HCT-116 colon
[15] = test system: NCI-H226 lung
[16] = test system: OVCAR-8 ovarian
[17] = test system: OVCAR-5 ovarian
[18] = test system: SR leukemia
[19] = test system: SN12C renal
[20] = test system: MOLT-4 leukemia
[21] = test system: NCI/ADR-RES ovarian
[22] = test system: U251 CNS
[23] = test system: KM12 colon
[24] = test system: CCRF-CEM leukemia
[25] = test system: MDA-MB-435
[26] = test system: NCI-H460 lung
[27] = test system: SF-268 CNS
[28] = test system: M14 melanoma
[29] = test system: UACC-62 melanoma
[30] = test system: PC-3 prostate
[31] = test system: A549 NSCLC
[32] = test system: ACHN renal
[33] = test system: SW-620 colon
[34] = test system: SK-MEL-28 melanoma
[35] = test system: SF-295 CNS
[36] = test system: SK-OV-3 ovarian
[37] = test system: HCC-2998 colon
[38] = test system: OVCAR-4 ovarian
[39] = test system: K-562 leukemia
[40] = test system: COLO 205 colon
[41] = test system: SK-MEL-5 melanoma
[42] = test system: MALME-3M melanoma
[43] = test system: OVCAR-3 ovarian
[44] = test system: NCI-H522 lung
[45] = test system: HS 578T breast
[46] = test system: UACC-257 melanoma
[47] = test system: HOP-62 NSCLC
[48] = test system: RXF 393 renal
[49] = test system: SF-539 CNS
[50] = test system: BT-549 breast
[51] = test system: MCF7 breast
[52] = test system: LOX IMVI melanoma
[53] = test system: SK-MEL-2 melanoma
[54] = test system: IGROV1 ovarian
[55] = test system: SNB-75 CNS
[56] = test system: HCT-15 colon

Question: `Nc1ccccc1SC(CC(=O)c1ccccc1)c1ccc([N+](=O)[O-])cc1` (configuration not stated) was tested. Which GI50 [1] did it give?
Answer: 12.6 µM

Question: What about the TGI [1] of the same molecule?
Answer: 35.2 µM

Question: And the GI50 [2]?
Answer: 4.3 µM

Question: What about the TGI [2] of the same molecule?
Answer: 14.6 µM

Question: What about the GI50 [3] of the same molecule?
Answer: 11.8 µM

Question: And the TGI [3]?
Answer: 24.1 µM

Question: What about the GI50 [4] of the same molecule?
Answer: 15.2 µM

Question: And the TGI [4]?
Answer: 28.8 µM

Question: And the GI50 [5]?
Answer: 14.3 µM

Question: And the TGI [5]?
Answer: 27.7 µM

Question: What about the GI50 [6] of the same molecule?
Answer: 13.9 µM

Question: What about the TGI [6] of the same molecule?
Answer: 27.2 µM

Question: And the GI50 [7]?
Answer: 7.75 µM

Question: And the TGI [7]?
Answer: 21.5 µM

Question: What about the GI50 [8] of the same molecule?
Answer: 13.5 µM

Question: And the TGI [8]?
Answer: 27.2 µM

Question: And the GI50 [9]?
Answer: 17.2 µM

Question: What about the TGI [9] of the same molecule?
Answer: 31 µM

Question: And the GI50 [10]?
Answer: 12.2 µM

Question: What about the TGI [10] of the same molecule?
Answer: 24.6 µM

Question: What about the GI50 [11] of the same molecule?
Answer: 2.91 µM

Question: And the TGI [11]?
Answer: 9.06 µM

Question: And the GI50 [12]?
Answer: 12.1 µM

Question: And the TGI [12]?
Answer: 36.3 µM

Question: And the GI50 [13]?
Answer: 18.6 µM

Question: And the TGI [13]?
Answer: 32.7 µM

Question: What about the GI50 [14] of the same molecule?
Answer: 1.67 µM

Question: And the TGI [14]?
Answer: 3.16 µM

Question: And the GI50 [15]?
Answer: 18 µM

Question: What about the TGI [15] of the same molecule?
Answer: 36.3 µM

Question: What about the GI50 [16] of the same molecule?
Answer: 14.1 µM

Question: What about the TGI [16] of the same molecule?
Answer: 27.4 µM

Question: What about the GI50 [17] of the same molecule?
Answer: 16.6 µM

Question: And the TGI [17]?
Answer: 30.6 µM

Question: And the GI50 [18]?
Answer: 2.57 µM

Question: And the TGI [18]?
Answer: 7.38 µM

Question: And the GI50 [19]?
Answer: 11.6 µM

Question: And the TGI [19]?
Answer: 23.8 µM

Question: And the GI50 [20]?
Answer: 13.5 µM

Question: And the TGI [20]?
Answer: 60.1 µM

Question: What about the GI50 [21] of the same molecule?
Answer: 14.5 µM

Question: And the TGI [21]?
Answer: 28.9 µM

Question: What about the GI50 [22] of the same molecule?
Answer: 4.51 µM

Question: What about the TGI [22] of the same molecule?
Answer: 16.9 µM

Question: What about the GI50 [23] of the same molecule?
Answer: 3.86 µM

Question: What about the TGI [23] of the same molecule?
Answer: 14.9 µM

Question: And the GI50 [24]?
Answer: 13.7 µM

Question: And the TGI [24]?
Answer: 46.7 µM

Question: And the GI50 [25]?
Answer: 14.3 µM

Question: And the TGI [25]?
Answer: 28 µM

Question: What about the GI50 [26] of the same molecule?
Answer: 17.3 µM

Question: And the TGI [26]?
Answer: 36 µM

Question: And the GI50 [27]?
Answer: 12.4 µM

Question: What about the TGI [27] of the same molecule?
Answer: 25.8 µM

Question: What about the GI50 [28] of the same molecule?
Answer: 13.8 µM

Question: And the TGI [28]?
Answer: 27.8 µM

Question: And the GI50 [29]?
Answer: 12.1 µM

Question: What about the TGI [29] of the same molecule?
Answer: 24.5 µM

Question: And the GI50 [30]?
Answer: 10.3 µM

Question: And the TGI [30]?
Answer: 22.4 µM

Question: What about the GI50 [31] of the same molecule?
Answer: 16.6 µM

Question: And the TGI [31]?
Answer: 32.6 µM

Question: What about the GI50 [32] of the same molecule?
Answer: 11.8 µM

Question: What about the TGI [32] of the same molecule?
Answer: 24.2 µM

Question: What about the GI50 [33] of the same molecule?
Answer: 2.88 µM

Question: And the TGI [33]?
Answer: 10.9 µM

Question: And the GI50 [34]?
Answer: 14.4 µM

Question: And the TGI [34]?
Answer: 27.6 µM

Question: And the GI50 [35]?
Answer: 16.1 µM

Question: And the TGI [35]?
Answer: 30 µM

Question: What about the GI50 [36] of the same molecule?
Answer: 17.3 µM

Question: And the TGI [36]?
Answer: 31 µM

Question: What about the GI50 [37] of the same molecule?
Answer: 15.8 µM

Question: And the TGI [37]?
Answer: 29.6 µM

Question: And the GI50 [38]?
Answer: 12.6 µM

Question: And the TGI [38]?
Answer: 25.9 µM

Question: What about the GI50 [39] of the same molecule?
Answer: 3.91 µM

Question: And the TGI [39]?
Answer: 14.8 µM

Question: And the GI50 [40]?
Answer: 16.7 µM

Question: What about the TGI [40] of the same molecule?
Answer: 31.2 µM

Question: And the GI50 [41]?
Answer: 15.6 µM

Question: What about the TGI [41] of the same molecule?
Answer: 29.4 µM

Question: And the GI50 [42]?
Answer: 15.3 µM

Question: And the TGI [42]?
Answer: 30.3 µM

Question: And the GI50 [43]?
Answer: 11.4 µM

Question: What about the TGI [43] of the same molecule?
Answer: 23.7 µM

Question: What about the GI50 [44] of the same molecule?
Answer: 12.9 µM

Question: What about the TGI [44] of the same molecule?
Answer: 27 µM

Question: And the GI50 [45]?
Answer: 18.1 µM

Question: And the TGI [45]?
Answer: 47.6 µM

Question: And the GI50 [46]?
Answer: 14.5 µM

Question: What about the TGI [46] of the same molecule?
Answer: 27.8 µM

Question: What about the GI50 [47] of the same molecule?
Answer: 14.5 µM

Question: And the TGI [47]?
Answer: 28 µM

Question: What about the GI50 [48] of the same molecule?
Answer: 15.8 µM

Question: What about the TGI [48] of the same molecule?
Answer: 29.6 µM

Question: What about the GI50 [49] of the same molecule?
Answer: 17.2 µM

Question: What about the TGI [49] of the same molecule?
Answer: 31.1 µM

Question: And the GI50 [50]?
Answer: 13.6 µM

Question: And the TGI [50]?
Answer: 26.6 µM

Question: What about the GI50 [51] of the same molecule?
Answer: 3.31 µM

Question: And the TGI [51]?
Answer: 16.1 µM

Question: What about the GI50 [52] of the same molecule?
Answer: 1.91 µM

Question: And the TGI [52]?
Answer: 4.15 µM

Question: What about the GI50 [53] of the same molecule?
Answer: 18 µM

Question: What about the TGI [53] of the same molecule?
Answer: 33 µM

Question: What about the GI50 [54] of the same molecule?
Answer: 5.69 µM

Question: And the TGI [54]?
Answer: 21.6 µM

Question: What about the GI50 [55] of the same molecule?
Answer: 11.2 µM

Question: And the TGI [55]?
Answer: 23.3 µM

Question: What about the GI50 [56] of the same molecule?
Answer: 8.51 µM

Question: What about the TGI [56] of the same molecule?
Answer: 22.4 µM
